{"source": "patent US7241581B2", "about": "“Methods of identifying compounds that modulate IL-4 receptor-mediated IgE synthesis utilizing a c-MYC protein” (Rigel Pharmaceuticals, Inc., priority 2002, dated 2007)", "key": {"[1]": {"tested_on": "endogenous germline ε promoter", "assay": "TAQMAN assay of endogenous germline ε promoter transcription in A5T4 cells", "format": "cell-based, human", "conditions": "relative expression units of +IL-4/+Dox to +IL-4/-Dox A5T4 cells; IL-4 60 U/ml, 3 days; average of 3 values", "protocol": "The ability of peptide BR10A1 wt to inhibit transcription of an endogenous germline ε promoter was confirmed using a TAQMAN® assay (Roche Molecular, Alameda, Calif.). Briefly, A5T4 cells were infected with retrovirus capable of expressing peptide BR10A1 wt (prepared as described above). The cells were sorted for BFP^+ to select for infected cells. Infected cells were divided into two populations. One population was exposed to Dox (10 ng/ml). Both populations were stimulated with IL-4 (60 U/ml). After 3 days, the cells were pelleted and the pellets assayed for ε promoter transcription using a TAQMAN assay performed as described in Applied Biosystems Protocol 4310299 (available at http:www.appliedbiosystems.com). The primers and probe, which are specific for the transcription product driven by the A5T4 endogenous ε promoter, were as follows (the probe was labeled at the 5′-end with Fam and at the 3′-end with Tamra): […]"}, "germline ε promoter": {"tested_on": "germline ε promoter", "assay": "Functional profile of BR10A1 wt and mutants in the A5T4 reporter cell line", "format": "cell-based, human", "conditions": "A5T4 reporter line", "protocol": "Following infection, the library was enriched for cells expressing peptides that inhibit IL-4 induced ε transcription as generally outlined in the top half of FIG. 3 and sorted by FACS into single cell clones. The clones were then screened as generally illustrated in the lower half of FIG. 3. Briefly, for screening, each clone was divided into two populations and one population was treated with Dox (10 ng/ml). After 5 days, both populations were stimulated with IL-4 (final conc. 60 U/mL; PeptroTech, Inc.) and, after 3 more days, both populations were analyzed by FACS to measure BFP and GFP fluorescence. FACS data were converted to a “reporter ratio”, which is defined for this purpose as the ratio of the geometric mean of GFP fluorescence of the +IL-4/+Dox to the +IL-4/−Dox populations. Cells expressing a peptide that inhibits germline ε transcription have a reporter ratio of ≧1.1. A reporter ratio of ≧1.2 is indicative of strong inhibition.\nThe ability of peptide BR10A1 wt to inhibit germline ε transcription was confirmed in naive cells. Briefly, Phoenix cells were transfected with a retroviral vector encoding a BFP-BR10A1 wt peptide fusion as described in WO 99/58663 and WO 97/27213. Naïve A5T4 cells were infected with the resultant virions and grown for 3 days. The infected cells were stimulated with IL-4 (60 U/mL) and, after 3 days, the cells were assessed by FACS for BFP and GFP. […] The BFP fluorescence data corresponding to the BFP^+ and BFP^− populations are provided in Panel A. The GFP fluorescence data corresponding to the BFP^+ and BFP^− populations are presented in Panel B. The reporter ratio for this purpose is determined as the geometric mean of the GFP fluorescence of the BFP^− population divided by the geometric mean of the GFP fluorescence of the BFP^+ population. The reporter ratio for the BR10A1 in this re-infection assay was 1.27.\nA collection of BR10A1 mutants was generated by replacing single or double amino acid residues in the sequence of BR10A1 wt with a different amino acid, typically an alanine or glycine, as described in copending application Ser. No.10/095,659, entitled Methods of Identifying Protein Targets, filed Mar. 8, 2002 . The functional profiles for the mutants derived from BR10A1 wt was obtained by constructing and screening for activity in the A5T4 reporter cell line in the manner described above. The activity of each mutant at the germline ε promoter is reflected in the reporter ratio as described above. The reporter ratios were the functional values that were used to develop the functional profiles. Measurement of the reporter ratios of the mutant peptides was carried out in a number of separate experiments, each time comparing the value of cells transfected with mutant peptide to that of cells transfected with control WT peptide done at the same time. The reporter ratios of the control WT peptide can vary depending upon a number of factors including the infectivity or the state of the infected cells at the time of infection.\nTABLE 2 depicts the amino acid sequences (the dual alanine mutations are underlined) of the mutants tested and the measured reporter ratios when screening in the A5T4 reporter line.\nComparison of the interaction and functional profiles was performed by categorizing the mutants of BR10A1 based on the functional and interaction assays. Based on the reporter ratio, each mutant was categorized into one of four functional categories: (1) reduction of function (ROF); (2) loss of function (LOF); (3) increase of function (IOF) or (4) functionally neutral (N) as compared to the activity of the wild type peptide, here BR10A1 wt. As mentioned previously, cells expressing a peptide that inhibits germline ε transcription have reporter ratios of ≧1.1. Cells expressing a loss of function (LOF) mutant have a reporter ratio of <1.11. […] Functionally neutral mutants have reporter ratios that fall within ±50% of that of the BR10A1 wt peptide. […]"}}, "data": [{"sequence": "MQRRESCITRSVEEGWGLFYLGP (peptide encoded by random oligo-BR10A1wt) [wild-type peptide from random library, expressed in cells as BFP-peptide fusion]", "values": [{"measurement": "endogenous ε inhibition ratio", "setting": "[1]", "value": 2.18}, {"measurement": "Reporter Ratio", "setting": "germline ε promoter; first value column (separate experiment with its own WT control)", "value": 1.27}, {"measurement": "Reporter Ratio", "setting": "germline ε promoter; fourth value column (separate experiment with its own WT control)", "value": 1.35}, {"measurement": "Reporter Ratio", "setting": "germline ε promoter; second value column (separate experiment with its own WT control)", "value": 1.36}, {"measurement": "Reporter Ratio", "setting": "germline ε promoter; separate experiment with its own WT control", "value": 1.55}]}]}
